Consider 19 molecules from patent US7109215B2, “Compounds possessing neuronal activity” (Vertex Pharmaceuticals Incorporated, priority 1997, dated 2006).

One assay deals with HL60/Vinc cells. Description: MDR sensitization (reversal) assay, doxorubicin, XTT viability. Type of assay: cell-based, human. Particulars: IC50 doxorubicin alone / IC50 doxorubicin plus compound. The method, then:
We carried out multidrug resistance reversal (MDR) assays using L1210vMDRC.06 or HL60/Vinc cell lines. L1210vMDRC.06 are L1210 mouse leukemia cells transduced with the pHaMDR1/A retrovirus carrying a MDR1 cDNA, as described by Pastan et al., Proc. Natl. Acad. Sci. USA, 85, pp. 4486–4490 (1988). The L1210vMDRC.06 multidrug resistant line is a cell line that has been drug-selected by culturing transfected cells in 0.06 μg/ml colchicine. The HL60/Vinc human promyleocytic leukemia cell line is a multidrug resistant cell line derived from HL60 drug-sensitive parental cells by selection in increasing concentrations of vincristine.
Assays using HL60/Vinc cells were performed by plating cells in 96 well microtiter plates at a concentration of 4×10^4 cells/well. The cells were then exposed to various concentrations of doxorubicin (9 nM to 6.7 μM) in the presence or absence of various compounds of this invention at various concentrations (0.5, 1.0, 2.5, 5.0 or 10 μM) as described in U. Germann et al., Anti-Cancer Drugs, 8, pp. 141–155 (1997). After culturing the cells for 3 days, their viability was quantitated using the XTT dye method to assess mitochondrial function (Roehm et al., supra). Results were expressed as a ratio of the IC50 for doxorubicin alone to the IC50 for doxorubicin plus compound. In all assays the intrinsic antiproliferative or cytotoxicity activity of the MDR inhibitors was also determined for HL60/Vinc cells.
Background: Tetrazolium assays rely on reduction of a dye to a coloured formazan, in cell work by metabolically active cells.

In assay [1] the test system is pheochromocytoma PC12 cells. Nature of the assay: Neurite outgrowth quantitation in PC12 cell system. The assay is classed as cell-based, rat. Conditions: 1–5 ng/ml NGF, 72 hours. The procedure: In order to directly determine the neurotrophic activity of compounds described in this invention, the neurite outgrowth assay was carried out with pheochromocytoma PC12 cells as described by Lyons et al. (1994).
PC12 cells were maintained at 37° C. and 5% CO2 in Dulbecco's modified Eagle's medium (DMEM) supplemented with 10% heat-inactivated horse serum, 5% heat-inactivated fetal bovine serum (FBS), and 1% glutamate.
The cells were then plated at […] in 96 well plates coated with […] rat tail collagen and allowed to attach overnight. The medium was then replaced with DMEM, 2% heat-inactivated horse serum, 1% glutamate, 1–5 ng/ml of NGF (Sigma) and varying concentrations of the compounds of this invention (0.01 nM–10000 nM). The background control culture was administered with […] of NGF alone without compound. Positive control cultures were administered with high concentration of NGF (50 ng/ml). The cells were then incubated at 37° C. at 5% CO2 for 72 hours, fixed with 3% formaldehyde and nerve outgrowth was determined visually on a scale of 0 to 4.

The target in the next assay is FKBP (Homo sapiens, UniProt P62942). Description: Rotamase inhibition assay (chymotrypsin-coupled PPIase assay). Particulars: 15 nM FKBP, 30 μM Suc-Ala-Leu-Pro-Phe-pNA, 15° C. The assay is classed as biochemical. The procedure: Inhibition of FKBP enzyme activity was determined in the PPIase assay described in S. T. Park et al., J. Biol. Chem., 267, pp. 3316–24 (1992), the disclosure of which is herein incorporated by reference. This is a chymotrypsin-coupled assay in which FKBP catalyzes the cis to trans isomerization of the Leu-Pro bond in the peptide substrate Suc-Ala-Leu-Pro-Phe-pNA. The trans form, but not the cis form, is cleavable by chymotrypsin. The release Phe-pNA was monitored by absorbance at 400 nm. Chymotrypsyn cleavage is very rapid and therefore cis-to-trans isomerization is rate-limiting.
Chain of FKBP (P62942 whole entry): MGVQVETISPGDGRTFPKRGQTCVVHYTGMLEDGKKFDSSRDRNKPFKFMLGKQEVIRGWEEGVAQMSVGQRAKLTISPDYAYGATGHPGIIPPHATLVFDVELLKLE
Each reaction mix consisted of 0.1 M Tris buffer, pH 7.8, 15 nM FKBP, 30 μM substrate and 0.5 nM to 10 μM of compound to be tested diluted in Me2SO. The mixture was incubated at 15° C. for 5 minutes and then reaction was initiated by addition of chymotrypsin (100 μg/ml final concentration) and followed spectrophotometrically for 5 minutes. Total reaction volume was 1 ml.

Each structure is given as a SMILES string. Marks after values point to notes of the source that are not given here. Where only a bound is given, the exact number is not on record here.

For `O=C(NCc1ccncc1)C1CCCCN1` (stereo not drawn) [Compound 104], the “MDR Ratio” value in the assay on HL60/Vinc cells (compound 2.5 μM) is 0.6. Also, the “Neurite outgrowth, visual scale of 0 to 4” value (shortened to “Neurite outgrowth”) is on record as 3* in assay [1] (compound 0.01 nM); 3* in assay [1] (compound 0.1 nM); 2* in assay [1] (compound 1 nM); 2* in assay [1] (compound 10 nM); 4* in assay [1] (compound 100 nM); 3* in assay [1] (compound 1000 nM). In addition, the “Neurite outgrowth” value in assay [1] (compound 10000 nM) was 4*. For the same molecule, the Ki at FKBP was more than 50 µM.
Regarding `CN(C(=O)[C@H](Cc1ccccc1)N(C)S(=O)(=O)Cc1ccccc1)C(CCCc1cccnc1)CCCc1cccnc1` [Compound 12], the “MDR Ratio” value in the assay on HL60/Vinc cells (compound 2.5 μM) amounted to 22.6. The “Neurite outgrowth” value was 3* in assay [1] (compound 10 nM), 3* in assay [1] (compound 100 nM) and 4* in assay [1] (compound 1000 nM).
For the molecule `CNC(Cc1ccccc1)C(=O)N(C)C(CCCc1cccnc1)CCCc1cccnc1` (stereo not drawn) [Compound 109], the “Neurite outgrowth” value in assay [1] (compound 0.01 nM) was 3*; in assay [1] (compound 0.1 nM), 4*; in assay [1] (compound 1 nM), 4*; in assay [1] (compound 10 nM) it was 3*; in assay [1] (compound 100 nM), 2*; in assay [1] (compound 1000 nM), 4*. Besides, the “Neurite outgrowth” value in assay [1] (compound 10000 nM) is given as 3*.
For the molecule `CN(C(=O)[C@H](Cc1ccccc1)N(C)S(=O)(=O)c1ccc(F)cc1)C(CCCc1cccnc1)CCCc1cccnc1` [Compound 14], the “MDR Ratio” value in the assay with HL60/Vinc cells (compound 2.5 μM) was 19.9. In addition, the results for the “Neurite outgrowth” value in assay [1] (compound 10 nM), in assay [1] (compound 100 nM) and in assay [1] (compound 1000 nM) were 3*, 2* and 4*, respectively.
`CN1CCCCC1C(=O)OC(CCCc1ccncc1)CCCc1cccnc1` (stereo not drawn) [Compound 111]: the “MDR Ratio” value with HL60/Vinc cells (compound 2.5 μM) worked out at 1.2. Moreover, the “Neurite outgrowth” value in assay [1] (compound 0.01 nM) is 4*; in assay [1] (compound 0.1 nM), 4*; in assay [1] (compound 1 nM) it was 3*; in assay [1] (compound 10 nM), 2**; in assay [1] (compound 100 nM), 4**; in assay [1] (compound 1000 nM) it was 4**. Moreover, the “Neurite outgrowth” value in assay [1] (compound 10000 nM) is 4*. The molecule further displayed a Ki at FKBP of more than 50 µM.
As for `CC(C)CN1CCCCC1C(=O)OC(CCCc1ccncc1)CCCc1cccnc1` (stereo not drawn) [Compound 112], in the assay on HL60/Vinc cells (compound 2.5 μM), the “MDR Ratio” value is on record as 2.4. Moreover, the “Neurite outgrowth” value in assay [1] (compound 10 nM) is on record as 3*; in assay [1] (compound 100 nM), 4*; in assay [1] (compound 1000 nM), 3*. The same molecule returned a Ki on FKBP of more than 50 µM.
For the molecule `CN(C)c1ccc(/N=N\c2ccc(S(=O)(=O)N(C)[C@@H](Cc3ccccc3)C(=O)N(C)C(CCCc3cccnc3)CCCc3cccnc3)cc2)cc1` [Compound 6], the “MDR Ratio” value in the assay on HL60/Vinc cells (compound 10 μM) was 17.7. The “Neurite outgrowth” value in assay [1] (compound 10 nM) is given as 4*; in assay [1] (compound 100 nM), 2*; in assay [1] (compound 1000 nM), 3*.
Turning to `O=C(OC(CCCc1cccnc1)CCCc1cccnc1)C1CCCCN1` (stereo not drawn) [Compound 102], in the assay with HL60/Vinc cells (compound 2.5 μM), the “MDR Ratio” value came out at 1.2. Also, the “Neurite outgrowth” value in assay [1] (compound 0.01 nM) is 3*; in assay [1] (compound 0.1 nM) it was 3*; in assay [1] (compound 1 nM) it was 4*; in assay [1] (compound 10 nM) it was 4**; in assay [1] (compound 100 nM), 2**; in assay [1] (compound 1000 nM), 3**. Also, in assay [1] (compound 10000 nM), the “Neurite outgrowth” value was 4*.
In the case of `CN(C(=O)[C@H](Cc1ccccc1)N(C)S(=O)(=O)c1ccc(Nc2ccc([N+](=O)[O-])cc2[N+](=O)[O-])cc1)C(CCCc1cccnc1)CCCc1cccnc1` [Compound 5], in the assay on HL60/Vinc cells (compound 10 μM), the “MDR Ratio” value is 30.4. In addition, the entries for the “Neurite outgrowth” value in assay [1] (compound 10 nM), in assay [1] (compound 100 nM) and in assay [1] (compound 1000 nM) were 2*, 3* and 3*, respectively.
Regarding `COc1ccc(S(=O)(=O)N(C)[C@@H](Cc2ccccc2)C(=O)N(C)C(CCCc2cccnc2)CCCc2cccnc2)cc1` [Compound 18], the “MDR Ratio” value with HL60/Vinc cells (compound 2.5 μM) is reported as 10.8. For the same molecule, the results for the “Neurite outgrowth” value in assay [1] (compound 10 nM), in assay [1] (compound 100 nM) and in assay [1] (compound 1000 nM) were 3*, 4* and 4*, respectively. In addition, the Ki at FKBP is more than 50 µM.
As to `CN(C(=O)[C@H](Cc1ccccc1)N(C)S(=O)(=O)/C=C/c1ccccc1)C(CCCc1cccnc1)CCCc1cccnc1` [Compound 13], the “MDR Ratio” value in the assay on HL60/Vinc cells (compound 2.5 μM) came to 19.3. Further, the results for the “Neurite outgrowth” value in assay [1] (compound 10 nM), in assay [1] (compound 100 nM) and in assay [1] (compound 1000 nM) were 3*, 3* and 4*, respectively.
For the molecule `CNC(Cc1ccccc1)C(=O)N(C)CCCc1cccnc1` (stereo not drawn) [Compound 108], the “MDR Ratio” value in the assay with HL60/Vinc cells (compound 2.5 μM) worked out at 0.4. In addition, the “Neurite outgrowth” value in assay [1] (compound 10 nM) worked out at 0; in assay [1] (compound 100 nM), 3; in assay [1] (compound 1000 nM), 0. In addition, the Ki on FKBP is more than 25 µM.
With `CN(C)c1cccc2c(S(=O)(=O)N(C)[C@@H](Cc3ccccc3)C(=O)N(C)C(CCCc3cccnc3)CCCc3cccnc3)cccc12` [Compound 7], in the assay on HL60/Vinc cells (compound 10 μM), the “MDR Ratio” value is given as 21.9. The figures for the “Neurite outgrowth” value in assay [1] (compound 10 nM), in assay [1] (compound 100 nM) and in assay [1] (compound 1000 nM) were 2*, 3* and 3*, respectively.
With `O=C(OCc1ccccc1)C1CCCCN1` (stereo not drawn) [Compound 101], the Ki at FKBP was more than 50 µM.
On to `CN(C(=O)[C@H](Cc1ccccc1)N(C)S(=O)(=O)c1ccc(C#N)cc1)C(CCCc1cccnc1)CCCc1cccnc1` [Compound 16], for which the “MDR Ratio” value in the assay on HL60/Vinc cells (compound 2.5 μM) turned out to be 19.9. In addition, the “Neurite outgrowth” value in assay [1] (compound 10 nM) is listed as 3*; in assay [1] (compound 100 nM) it was 4*; in assay [1] (compound 1000 nM), 3*.
Take `CN(CCc1ccccn1)C(=O)[C@@H]1CCCCN1S(=O)(=O)c1ccc(N)cc1` [Compound 1, N-(4-aminobenzenesulfonamido)-(S)-piperidine-2-carboxylic acid-2-((N-methyl)-2-pyridylethyl) amide]: the “MDR Ratio” value with HL60/Vinc cells (compound 2.5 μM) stood at 0.6. For the same molecule, the “Neurite outgrowth” value is given as 3*** in assay [1] (compound 10 nM), 1*** in assay [1] (compound 100 nM) and 3*** in assay [1] (compound 1000 nM).
`COc1ccc(S(=O)(=O)N(C)[C@@H](Cc2ccccc2)C(=O)N(C)C(CCCc2cccnc2)CCCc2cccnc2)cc1OC` [Compound 17]: in the assay on HL60/Vinc cells (compound 2.5 μM), the “MDR Ratio” value was determined as 14.6. Moreover, the “Neurite outgrowth” value in assay [1] (compound 10 nM) is 3*; in assay [1] (compound 100 nM), 3*; in assay [1] (compound 1000 nM), 4*.
In the case of `CN(C(=O)[C@H](Cc1ccccc1)N(C)S(=O)(=O)CS(C)(=O)=O)C(CCCc1cccnc1)CCCc1cccnc1` [Compound 11], in the assay with HL60/Vinc cells (compound 2.5 μM), the “MDR Ratio” value was found to be 1.7. Moreover, the “Neurite outgrowth” value in assay [1] (compound 10 nM) is 1*; in assay [1] (compound 100 nM), 3*; in assay [1] (compound 1000 nM), 3*.
On to `CC(=O)Nc1ccc(S(=O)(=O)N(C)[C@@H](Cc2ccccc2)C(=O)N(C)C(CCCc2cccnc2)CCCc2cccnc2)cc1` [Compound 15], for which, in the assay on HL60/Vinc cells (compound 2.5 μM), the “MDR Ratio” value is recorded as 2.4. Further, the “Neurite outgrowth” value in assay [1] (compound 10 nM), in assay [1] (compound 100 nM) and in assay [1] (compound 1000 nM) was 3* in each case.

Broadly, the Ki is the dissociation constant of the complex between target and ligand, obtained from inhibition or displacement.
